Results from ChEMBL document CHEMBL5352404, “Synthesis and evaluation of novel furanones as biofilm inhibitors in opportunistic human pathogens” (Eur J Med Chem, 2022).
Activity calls are given as the source filed them. The rule behind the calls is not given here.

How the values were obtained:
[1] = system: Stenotrophomonas maltophilia; assay: Antibacterial activity against Stenotrophomonas maltophilia K279a assessed as bacterial growth inhibition at 50 uM incubated for 20 hrs by broth microdilution method; format: functional, organism-based
[2] = system: Stenotrophomonas maltophilia; assay: Inhibition of biofilm formation in Stenotrophomonas maltophilia K279a at 50 uM incubated for 24 hrs by crystal violet staining based analysis; format: functional, organism-based
Pseudomonas aeruginosa [3] = assay: Antibacterial activity against eYFP labeled Pseudomonas aeruginosa PAO1 assessed as inhibition of bacterial growth at 50 uM incubated for 20 hrs by broth microdilution method relative to control; format: functional; parameters: scale not given: the % may be the effect or the level left
Pseudomonas aeruginosa [4] = assay: Antibacterial activity against Pseudomonas aeruginosa PAR7244 assessed as bacterial growth inhibition at 50 uM incubated for 20 hrs by broth microdilution method; format: functional, organism-based
Escherichia coli [5] = assay: Antibiofilm activity against Escherichia coli ATCC 9637 assessed as reduction in biofilm formation at 50 uM incubated for 24 hrs by crystal violet staining based assay relative to control; format: functional; parameters: scale not given: the % may be the effect or the level left
Pseudomonas aeruginosa [6] = assay: Inhibition of biofilm formation in eYFP labeled Pseudomonas aeruginosa PAO1 at 50 uM incubated for 24 hrs by crystal violet staining based analysis relative to control; format: functional
Candida albicans [7] = assay: Inhibition of biofilm formation in Candida albicans M2396 at 50 uM incubated for 24 hrs by crystal violet staining based analysis; format: functional, organism-based
Candida albicans [8] = assay: Antibiofilm activity against Candida albicans M2396 at 50 uM incubated for 24 hrs by confocal laser-scanning microscopy; format: functional, organism-based
HK-2 = assay: Cytotoxicity against human HK-2 cells assessed as reduction in cell survival at 50 uM incubated for 24 to 48 hrs by MTT assay; format: toxicity, cell-based; conditions: hk-2, 50 µM, time 24-48 hrs
[9] = Toxicity in Galleria mellonella larvae assessed as reduction in animal survival at 100 uM
[10] = Toxicity in Galleria mellonella larvae assessed as signs of melanization at 100 uM
Candida albicans [11] = assay: Antibiofilm activity against Candida albicans M2396/Pseudomonas aeruginosa PA01 dual-species at 50 uM incubated for 24 hrs by confocal laser-scanning microscopy; format: functional, organism-based
Escherichia coli [12] = assay: Antibiofilm activity against Escherichia coli ATCC 9637 assessed as reduction in biofilm formation at 50 uM incubated for 24 hrs by crystal violet staining based assay; format: functional, organism-based
Pseudomonas aeruginosa [13] = assay: Antibiofilm activity against Pseudomonas aeruginosa PAR7244 assessed as reduction in biofilm formation at 50 uM incubated for 24 hrs by crystal violet staining based analysis; format: functional, organism-based
Candida albicans [14] = assay: Inhibition of biofilm formation in developmental phase of Candida albicans M2396 at 50 uM incubated for 24 hrs by crystal violet staining based analysis; format: functional, organism-based
Candida albicans [15] = assay: Antifungal activity against RFP-expressing Candida albicans M2396 assessed as fungal growth inhibition at 50 uM incubated for 20 hrs by microplate reader analysis; format: functional, organism-based
Candida albicans [16] = assay: Inhibition of biofilm formation in RFP-expressing Candida albicans M2396 at 50 uM incubated for 24 hrs by crystal violet staining based analysis relative to control; format: functional
Candida albicans [17] = assay: Inhibition of biofilm formation in developmental phase of Candida albicans M2396 at 50 uM incubated for 24 hrs by crystal violet staining based analysis relative to control; format: functional
Staphylococcus aureus = assay: Inhibition of biofilm formation in Staphylococcus aureus Newman ATCC 25904 at 50 uM incubated for 24 hrs by crystal violet staining based assay relative to control; format: functional
Escherichia coli [18] = assay: Antibacterial activity against Escherichia coli ATCC 9637 assessed as bacterial growth inhibition at 50 uM incubated for 20 hrs by broth microdilution method relative to control; format: functional; parameters: scale not given: the % may be the effect or the level left
Salmonella typhimurium [19] = assay: Antibiofilm activity against Salmonella enterica subsp. enterica serovar Typhimurium assessed as reduction in biofilm formation at 50 uM incubated for 24 hrs by crystal violet staining based assay relative to control; format: functional; parameters: scale not given: the % may be the effect or the level left
Salmonella typhimurium [20] = assay: Antibacterial activity against Salmonella enterica subsp. enterica serovar Typhimurium assessed as bacterial growth inhibition at 50 uM incubated for 20 hrs by broth microdilution method; format: functional, organism-based

Structure (SMILES) | Activity [1] | inhibition [2] | Activity (Pseudomonas aeruginosa [3]) | Activity (Pseudomonas aeruginosa [4]) | other results
O=C1C=CC(=C(c2ccc([N+](=O)[O-])cc2)c2ccc([N+](=O)[O-])cc2)O1 | inactive | inactive | <=5% | inactive | 
COc1ccc(C(=C2C=C(Br)C(=O)O2)c2ccc(OC)c(Br)c2)cc1Br | inactive | inactive | <=5% | inactive | Activity (Escherichia coli [5]): 15%
O=C1C=C/C(=C/Br)O1 | inactive | inactive | <=5% | inactive | inhibition at 50 µM (Pseudomonas aeruginosa [6]): 75%; inhibition (Candida albicans [7]): Active; Activity (Candida albicans [8]): Active; Activity (HK-2): Toxic; Activity [9]: Non-Toxic; Activity [10]: Non-Toxic; Activity (Candida albicans [11]): Active; Activity (Escherichia coli [12]): inactive; Activity (Pseudomonas aeruginosa [13]): inactive; inhibition (Candida albicans [14]): inactive; Activity (Candida albicans [15]): Active
O=C1C=CC(=C(c2cccs2)c2cccs2)O1 | inactive | inactive | <=5% | inactive | 
O=C1C=C/C(=C(/Br)c2ccc(C(F)(F)F)cc2)O1 | inactive | inactive | <=5% | inactive | inhibition at 50 µM (Candida albicans [16]): 75%; inhibition at 50 µM (Candida albicans [17]): 85%
O=C1C=CC(=C(c2ccc(F)cc2)c2ccc(F)cc2)O1 | inactive | inactive | <=5% | inactive | 
COc1ccc(C#CC(C#Cc2ccc(OC)cc2)=C2C=CC(=O)O2)cc1 | inactive | inactive | <=5% | inactive | inhibition at 50 µM (Staphylococcus aureus): 36%; Activity (Escherichia coli [5]): 31%; Activity (Escherichia coli [18]): 8%
COc1ccc(/C(Cl)=C2\C=CC(=O)O2)cc1 | inactive | inactive | <=5% | inactive | 
O=C1C=CC(=C(Cl)Cl)O1 | inactive | inactive | <=5% | inactive | inhibition at 50 µM (Pseudomonas aeruginosa [6]): 52%; inhibition at 50 µM (Candida albicans [16]): 21%; Activity [9]: Non-Toxic; Activity [10]: Non-Toxic
O=C1C=C/C(=C(/Br)c2cccc([N+](=O)[O-])c2)O1 | inactive | inactive | <=5% | inactive | 
O=C1C=CC(=C(c2cccc([N+](=O)[O-])c2)c2cccc([N+](=O)[O-])c2)O1 | inactive | inactive | <=5% | inactive | 
O=C1C=C(CBr)C(=C(Br)Br)O1 | inactive | inactive | <=5% | inactive | Activity (Salmonella typhimurium [19]): 72%; Activity (Salmonella typhimurium [20]): Active; inhibition at 50 µM (Staphylococcus aureus): 71%; inhibition at 50 µM (Pseudomonas aeruginosa [6]): 60%; inhibition at 50 µM (Candida albicans [16]): 51%; Activity (Candida albicans [8]): Active; Activity (HK-2): Toxic; Activity [9]: Non-Toxic; Activity [10]: Non-Toxic
O=C1OC(=C(c2ccc(C(F)(F)F)cc2)c2ccc(C(F)(F)F)cc2)C=C1Br | inactive | inactive | <=5% | inactive | 
O=C1C=CC(=C(c2ccc(O)cc2)c2ccc(O)cc2)O1 | inactive | inactive | <=5% | inactive | inhibition at 50 µM (Staphylococcus aureus): 52%
COc1cccc(/C(Br)=C2\C=CC(=O)O2)c1 | inactive | inactive | <=5% | inactive | 
COc1ccc(/C(Br)=C2\C=CC(=O)O2)cc1 | inactive | inactive | <=5% | inactive | 
